Source: patent US20110257168A1, “DERIVATIVES OF OXABISPIDINE AS NEURONAL NICOTINIC ACETYLCHOLINE RECEPTOR LIGANDS” (Targacept, Inc., priority 2008, published 2011)
Read-outs that look alike come from different tables or passages of the source.

How the values were obtained:
Rat α4β2 = target: T1, Rat α4β2 (Rattus norvegicus, UniProt P09483+P12390); assay: Competition binding to rat α4β2 receptors in membrane preparations
T1 construct: Preparation of membranes from rat tissues; Rat cortices were obtained from Analytical Biological Services; tissue Analytical Biological Services, Incorporated (ABS, Wilmington, Del.); host or cells: rat cortex membranes (female Sprague-Dawley)
Protocol: (§1) Preparation of membranes from rat tissues. Rat cortices were obtained from Analytical Biological Services, Incorporated (ABS, Wilmington, Del.). Tissues were dissected from female Sprague-Dawley rats, frozen and shipped on dry ice. Tissues were stored at −20° C. until needed for membrane preparation. Cortices from 10 rats were pooled and homogenized by Polytron (Kinematica GmbH, Switzerland) in 10 volumes (weight:volume) of ice-cold preparative buffer (KCl, 11 mM; KH2PO4, 6 mM; NaCl 137 mM; Na2HPO4 8 mM; HEPES (free acid), 20 mM; iodoacetamide, 5 mM; EDTA, 1.5 mM; 0.1 mM PMSF pH 7.4). The resulting homogenate was centrifuged at 40,000 g for 20 minutes at 4° C. and the resulting pellet was resuspended in 20 volumes of ice-cold water. After 60-minute incubation at 4° C., a new pellet was collected by centrifugation at 40,000 g for 20 minutes at 4° C. The final pellet was resuspended in preparative buffer and stored at −20° C. On the day of the assay, tissue was thawed, centrifuged at 40,000 g for 20 minutes and then resuspended in PBS (Dulbecco's Phosphate Buffered Saline, Life Technologies, pH 7.4) to a final concentration of 2-3 mg protein/mL. Protein concentrations were determined using the Pierce BCA Protein Assay kit (Pierce Biotechnology, Rockford, Ill.), with bovine serum albumin as the standard. Preparation of membranes from clonal cell lines. Cells were harvested in ice-cold PBS, pH 7.4, then homogenized with a polytron (Brinkmann Instruments, Westbury, N.Y.). Homogenates were centrifuged at 40,000 g for 20 minutes (4° C.). The pellet was resuspended in PBS and protein concentration determined using the Pierce BCA Protein Assay kit (Pierce Biotechnology, Rockford, Ill.).
(§2) Competition binding to receptors in membrane preparations. Binding to nicotinic receptors was assayed on membranes using standard methods adapted from published procedures (Lippiello and Fernandes, 1986; Davies et al., 1999). In brief, membranes were reconstituted from frozen stocks (approximately 0.2 mg protein) and incubated for 2 h on ice in […] assay buffer (PBS) in the presence of competitor compound (0.001 nM to […]) and radioligand. [^3H]-nicotine (L-(−)-[N-methyl-3H]-nicotine, 69.5 Ci/mmol, Perkin-Elmer Life Sciences) was used for human α4β2 binding studies. [^3H]-epibatidine (52 Ci/mmol, Perkin-Elmer Life Sciences) was used for binding studies at the other receptor subtypes. Incubation was terminated by rapid filtration on a multimanifold tissue harvester (Brandel, Gaithersburg, Md.) using GF/B filters presoaked in 0.33% polyethyleneimine (w/v) to reduce non-specific binding. Filters were washed 3 times and the radioactivity retained was determined by liquid scintillation counting.
(§3) Binding data analysis. Binding data were expressed as percent total control binding. Replicates for each point were averaged and plotted against the log of drug concentration. The IC50 (concentration of the compound that produces 50% inhibition of binding) was determined by least squares non-linear regression using GraphPad Prism software (GraphPAD, San Diego, Calif.). Ki was calculated using the Cheng-Prusoff equation (Cheng and Prusoff, 1973).

Rat α7 = target: T2, Rat α7 (Rattus norvegicus, UniProt Q05941); assay: Competition binding to rat α7 receptors in membrane preparations; conditions: membranes, [3H]-epibatidine competition; Ki by Cheng-Prusoff; read-out: Rat α7 Ki
T2 construct: Preparation of membranes from rat tissues; Rat cortices were obtained from Analytical Biological Services; tissue Analytical Biological Services, Incorporated (ABS, Wilmington, Del.); host or cells: rat brain membranes (only cortex is described)
Protocol: as §1, §2, §3

human α4β2 = human α4β2 (Homo sapiens, UniProt P17787+P43681); assay: Competition binding to human α4β2 receptors in membrane preparations
Protocol: (§4) SH-EP1/human α4β2 (Eaton et al., 2003), SH-EP1/human α4β4 (Gentry et al., 2003), SH-EP1/α6β3β4α5 (Grinevich et al., 2005), TE671/RD and SH-SY5Y cell lines (obtained from Dr. Ron Lukas, Barrow Neurological Institute) were maintained in proliferative growth phase in Dulbecco's modified Eagle's medium (Gibco/BRL) with 10% horse serum (Gibco BRL), 5% fetal bovine serum (HyClone, Logan Utah), 1 mM sodium pyruvate, 4 mM L-glutamine. For maintenance of stable transfectants, the α4β2 and α4β4 cell media was supplemented with 0.25 mg/mL zeocin and 0.13 mg/mL hygromycin B. Selection was maintained for the α6β3β4α5 cells with 0.25 mg/mL of zeocin, 0.13 mg/mL of hygromycin B, 0.4 mg/mL of geneticin, and 0.2 mg/mL of blasticidin. HEK/human α7/RIC3 cells (obtained from J. Lindstrom, U. Pennsylvania) were maintained in proliferative growth phase in Dulbecco's modified Eagle's medium (Gibco/BRL) with 10% fetal bovine serum (HyClone, Logan Utah), 1 mM sodium pyruvate, 4 mM L-glutamine, 0.4 mg/mL geneticin; 0.2 mg/ml hygromycin B.
as §1, §2
(§5) Binding data analysis. Binding data were expressed as percent total control binding. Replicates for each point were averaged and plotted against the log of drug concentration. […]

Human α7 = target: T3, Human α7 (Homo sapiens, UniProt P36544); assay: Competition binding to human α7 receptors in membrane preparations; conditions: membranes, [3H]-epibatidine competition; Ki by Cheng-Prusoff; read-out: Human α7 Ki
T3 construct: host or cells: HEK cells co-expressing RIC3
Protocol: as §4, §1, §2, §5

[1] = membranes, [3H]-nicotine competition, Ki by Cheng-Prusoff, read-out: human α4β2 Ki
[2] = membranes, [3H]-epibatidine competition, Ki by Cheng-Prusoff, read-out: Rat α4β2 Ki

Row | Compound | Ki (Rat α4β2) [nM] | Ki (Rat α7) [nM] | Ki (human α4β2; [1]) [nM] | Ki (Rat α4β2; [2]) [nM] | Ki (Human α7) [nM] | Ki (human α4β2) [nM]
1 | CC(C)Oc1cncc(N2CC3CNCC(C2)O3)c1 [3-(5-isopropoxypyridin-3-yl)-9-oxa-3,7-diazabicyclo[3.3.1]nonane] | 1.3 | 61000 | 0.9 |  |  | 
2 | Clc1cncc(N2CC3CNCC(C2)O3)c1 [3-(5-chloropyridin-3-yl)-9-oxa-3,7-diazabicydo[3.3.1]nonane] |  | 370 |  | 2.1 | 180 | 1
3 | FCCOc1cc(N2CC3CNCC(C2)O3)cnc1Cl [3-(5-(2-fluoroethoxy)-6-chloropyridin-3-yl)-9-oxa-3,7-diazabicyclo[3.3.1]nonane] | 0.41 |  | 0.21 |  | 1600 | 
4 | Clc1ccc(N2CC3CNCC(C2)O3)nn1 [3-(6-chloropyridazin-3-yl)-9-oxa-3,7-diazabicyclo[3.3.1]nonane] |  |  |  | 96 | 1300 | 63
5 | Clc1ccc(Oc2cncc(N3CC4CNCC(C3)O4)c2)cc1Cl [3-(5-(3,4-dichlorophenoxy)pyridin-3-yl)-9-oxa-3,7-diazabicyclo[3.3.1]nonane] | 11 | 210 | 3.5 |  | 360 | 
6 | Clc1ccc(N2CC3CNCC(C2)O3)cn1 [3-(6-chloropyridin-3-yl)-9-oxa-3,7-diazabicydo[3.3.1]nonane] | 5.2 | 210 | 1.2 |  | 240 | 
7 | c1ncc(N2CC3CNCC(C2)O3)cc1OCC1CC1 [3-(5-(cyclopropylmethoxy)pyridin-3-yl)-9-oxa-3,7-diazabicyclo[3.3.1]nonane] | 2.9 | 9300 | 0.5 |  |  | 
8 | N#Cc1cc(N2CC3CNCC(C2)O3)cnc1F [3-(5-cyano-6-fluoropyridin-3-yl)-9-oxa-3,7-diazabicyclo[3.3.1]nonane] | 24 |  | 19 |  | 16000 | 
9 | c1cnc(N2CC3CNCC(C2)O3)cn1 [3-(pyrazin-2-yl)-9-oxa-3,7-diazabicyclo[3.3.1]nonane] |  |  | 37 | 250 | 2200 | 
10 | CN1CC2CN(c3cncc(F)c3)CC(C1)O2 [3-(5-fluoropyridin-3-yl)-7-methyl-9-oxa-3,7-diazabicyclo[3.3.1]nonane] |  |  | 33 | 280 | 2100 | 
11 | N#Cc1ncc(N2CC3CNCC(C2)O3)cc1OC(F)F [3-(6-cyano-5-(difluoromethoxy)pyridin-3-yl)-9-oxa-3,7-diazabicyclo[3.3.1]nonane] | 0.12 |  | 0.26 |  | 940 | 
12 | Cc1cncc(N2CC3CNCC(C2)O3)c1 [3-(5-methylpyridin-3-yl)-9-oxa-3,7-diazabicydo[3.3.1]nonane] | 0.5 | 200 | 0.3 |  | 4500 | 
13 | FC(F)(F)c1ccc(N2CC3CNCC(C2)O3)cn1 [3-(6-trifluoromethylpyridin-3-yl)-9-oxa-3,7-diazabicyclo[3.3.1]nonane] |  |  |  | 48 | 1900 | 6.8
14 | Cc1cncc(N2CC3CN(C)CC(C2)O3)c1 [3-(5-methylpyridin-3-yl)-7-methyl-9-oxa-3,7-diazabicyclo[3.3.1]nonane] |  |  | 25 | 370 | 8700 | 
15 | N#Cc1cncc(N2CC3CNCC(C2)O3)c1 [3-(5-cyanopyridin-3-yl)-9-oxa-3,7-diazabicyclo[3.3.1]nonane] | 11 |  | 2.7 |  | 2000 | 
16 | FCCCOc1cc(N2CC3CNCC(C2)O3)cnc1Cl [3-(5-(3-fluoropropoxy)-6-chloropyridin-3-yl)-9-oxa-3,7-diazabicyclo[3.3.1]nonane] | 0.73 |  | 0.38 |  | 1900 | 
17 | COc1cccc(N2CC3CNCC(C2)O3)c1 [3-(3-methoxyphenyl)-9-oxa-3,7-diazabicyclo[3.3.1]nonane] |  |  | 33 | 110 | 800 | 
18 | c1ncc(N2CC3CNCC(C2)O3)cn1 [3-(pyrimidin-5-yl)-9-oxa-3,7-diazabicyclo[3.3.1]nonane] | 8 | 3200 | 7.6 |  | 2900 | 
19 | Fc1ccc(N2CC3CNCC(C2)O3)cn1 [3-(6-fluoropyridin-3-yl)-9-oxa-3,7-diazabicyclo[3.3.1]nonane] | 16 | 1400 | 2.5 |  | 180 | 
20 | FC(F)Oc1cncc(N2CC3CNCC(C2)O3)c1 [3-(5-(difluoromethoxy)pyridin-3-yl)-9-oxa-3,7-diazabicyclo[3.3.1]nonane] |  |  |  | 0.36 | 1600 | 0.42
21 | c1cc2cc(N3CC4CNCC(C3)O4)cnc2o1 [3-(furo[2,3-b]pyridin-5-yl)-9-oxa-3,7-diazabicyclo[3.3.1]nonane] | 23 |  | 48 |  | 6600 | 
22 | FC(F)(F)c1cncc(N2CC3CNCC(C2)O3)c1 [3-(5-trifluoromethylpyridin-3-yl)-9-oxa-3,7-diazabicyclo[3.3.1]nonane] | 9.7 | 17000 | 3.8 |  |  | 
23 | CN1CC2CN(c3cccnc3)CC(C1)O2 [3-methyl-7-(pyridin-3-yl)-9-oxa-3,7-diazabicyclo[3.3.1]nonane] |  |  | 95 | 180 | 5900 | 
24 | c1ncc(N2CC3CNCC(C2)O3)cc1C1CC1 [3-(5-cyclopropylpyridin-3-yl)-9-oxa-3,7-diazabicyclo[3.3.1]nonane] | 6.4 |  | 2 |  | 1300 | 
25 | c1cncc(N2CC3CNCC(C2)O3)c1 [3-(pyridin-3-yl)-9-oxa-3,7-diazabicyclo[3.3.1]nonane] | 3.9 | 650 | 1.1 |  | 670 | 
26 | COc1cc(N2CC3CNCC(C2)O3)cnc1F [3-(5-methoxy-6-fluoropyridin-3-yl)-9-oxa-3,7-diazabicyclo[3.3.1]nonane] |  |  |  | 1.1 | 1000 | 0.43
27 | c1cc2ncc(N3CC4CNCC(C3)O4)cc2o1 [3-(furo[3,2-b]pyridin-6-yl)-9-oxa-3,7-diazabicyclo[3.3.1]nonane] | 91 |  | 50 |  | 5700 | 
28 | N#Cc1ccc(N2CC3CNCC(C2)O3)cn1 [3-(6-cyanopyridin-3-yl)-9-oxa-3,7-diazabicyclo[3.3.1]nonane] |  |  | 42 | 290 | 8100 | 
